Source: patent US20150306068A1, “COMPOUNDS AND RELATED METHODS FOR TREATMENT OF NEURODEGENERATIVE DISEASES” (priority 2013, published 2015)

What was measured:
wild-type human tau = assay: Western blot of tau levels in HeLa cells transfected with wild-type human tau; format: cell-based; settings: treated 24 hours; for phosphorylated (pS199-202) wild type tau level: HeLa cells transfected with wild-type human tau, various doses, pS199-202 antibody; for C-terminal tau level (Tau 46 antibody) / N-terminal tau level (Tau H-150 antibody): human tau transfected HeLa cells, wild type and P301L not distinguished
Procedure: (§1) Compounds effects on tau activity/level were determine by a previously described method (Jinwal et al J. Neurosci. 2009 Sep. 30; 29(39):12079-88). In brief, human tau transfected HeLa Cells were treated with Compounds for 24 hours. Cells were harvested by using MPER reagent containing protease inhibitor and phosphatase inhibitor. Samples were analyzed by western blot. pS199-202 antibody was used to detect phospho tau level. Total tau levels were detected by tau H-150 &/or tau 46 antibodies.
(§2) HeLa cells were transfected with wild-type human tau (A) and mutant P301L human tau (B) (FIG. 1). After 24 hours, cells were treated with either palmadorin M or beauvericin for 24 hours.

mutant P301L human tau = assay: Western blot of tau levels in HeLa cells transfected with mutant P301L human tau; format: cell-based; settings: treated 24 hours, various doses, pS199-202 antibody
Procedure: as §1, §2

| Compound | phosphorylated (pS199-202) wild type tau level (wild-type human tau) | C-terminal tau level (Tau 46 antibody) (wild-type human tau) | N-terminal tau level (Tau H-150 antibody) (wild-type human tau) | phosphorylated (pS199-202) mutant P301L tau level (mutant P301L human tau) |
| --- | --- | --- | --- | --- |
| C=C1CC[C@@H]2C(C)(C)CCC[C@]2(C)[C@@H]1CC/C(C)=C/C(=O)OC(CO)CO [palmadorin M] | potent reduction | moderate change in tau level | increase in tau level | potent reduction |
| CC(C)[C@H]1OC(=O)[C@H](Cc2ccccc2)N(C)C(=O)[C@@H](C(C)C)OC(=O)[C@H](Cc2ccccc2)N(C)C(=O)[C@@H](C(C)C)OC(=O)[C@H](Cc2ccccc2)N(C)C1=O [beauvericin] | potent reduction | moderate change in tau level | increase in tau level | potent reduction |
